PubChem BioAssay AID643 (Vanderbilt High Throughput Screening Facility, 2007)
Activity calls are given as the source filed them. No rule for the calls is given here.

Target: Muscarinic acetylcholine receptor M4 (Mus musculus) (UniProt P32211)
Experiment: M4 muscarinic receptor activation by allosteric ligands – cell-based, confirmation (AID 643)
Conditions: HEK293 cells expressing M4, thallium flux fluorescence, 2 min; active compounds read high

Muscarinic acetylcholine receptor M4 (Mus musculus), sequence (P32211 whole entry, looked up): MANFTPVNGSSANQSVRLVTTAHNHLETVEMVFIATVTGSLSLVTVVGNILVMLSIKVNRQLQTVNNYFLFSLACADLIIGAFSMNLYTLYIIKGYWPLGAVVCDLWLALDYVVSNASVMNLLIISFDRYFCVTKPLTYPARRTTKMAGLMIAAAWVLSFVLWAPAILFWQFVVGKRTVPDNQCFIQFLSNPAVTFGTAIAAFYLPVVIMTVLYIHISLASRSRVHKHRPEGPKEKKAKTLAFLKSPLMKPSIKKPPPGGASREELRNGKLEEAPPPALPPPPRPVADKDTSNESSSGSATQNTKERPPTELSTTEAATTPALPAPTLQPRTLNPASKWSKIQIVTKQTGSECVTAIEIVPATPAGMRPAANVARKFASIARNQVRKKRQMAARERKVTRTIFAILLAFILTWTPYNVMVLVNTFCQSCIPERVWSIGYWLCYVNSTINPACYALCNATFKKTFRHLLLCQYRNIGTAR

Row | SMILES | response slope
1 | COc1cc(OC)cc(-c2nnc(Nc3nc4c(F)cccc4s3)o2)c1 | 0.0119
2 | CCOc1ccccc1OCCCCN1CCCC1 | 0.0043 (inactive)
3 | CCOC(=O)CC(=O)CSc1nc(-c2cccnc2)ccc1C#N | 0.00405 (inactive)
4 | O=C(Nc1nc(=O)c2ccccc2s1)c1ccccc1 | 0.00981
5 | COc1ccc(CCn2c(=N)c(C(=O)NCc3ccco3)cc3c(=O)n4ccccc4nc32)cc1 | 0.000825 (inactive)
6 | Cc1c(C#N)sc2nc(-c3ccccc3)nc(N3CCCC3)c12 | 0.0119
7 | O=c1oc2c3c4c(cc2c(C(F)(F)F)c1CCN1CCOCC1)CCCN4CCC3 | 0.0204
8 | N#Cc1c(NC(=O)c2ccc(Br)o2)n(-c2ccccc2)c2nc3ccccc3nc12 | 0.00921
9 | Cc1ccc(S(=O)(=O)/C(C#N)=C/c2c(N3CCN(C)CC3)nc3c(C)cccn3c2=O)cc1 | 0.00236 (inactive)
10 | Cc1ccccc1-n1nc(C)c2cc(C(=O)NCc3cccnc3)sc21 | 0.00964
11 | CCOC(=O)c1cnn2c1[nH]c(=O)c1ccccc12 | 0.00865
12 | CC(=O)c1c(C)c2c(n1CCN(C)C)CCCC2 | 0.00747
13 | CCCCN(CCCC)c1nc2ccccc2nc1C(C#N)C(=O)NCCCOC (stereo not given) | 0.00562 (inactive)
14 | CCOC(=O)c1cc(-c2nnc(-c3ccc(Oc4ccccc4)cc3)o2)c(C)nc1C | 0.0113
15 | Cc1nn(-c2ccc(Cl)cc2)c2sc(C(=O)N3CCN(c4ccccn4)CC3)cc12 | 0.00468 (inactive)
16 | CCCCCCc1cc2cc(-c3nnc(-c4ccccc4O)o3)c(=O)oc2cc1O | 0.0548
17 | Cc1c2ccncc2c(C)c2c1[nH]c1ccccc12 | 0.0125
18 | Cc1ccc(Cl)cc1N1CCN(C(=O)CN2C(=O)c3cccc4cccc2c34)CC1 | 0.00517 (inactive)
19 | CCCCNC(=O)Nc1ccnn1C1CCCCC1 | 0.00873
20 | Fc1cccc2sc(Nc3nnc(-c4ccco4)o3)nc12 | 0.0206
21 | CCOC(=O)C1=C[C@]2(CC)CCCN3CCc4c(n1c1ccccc41)[C@@H]32 | 0.00841
22 | CNS(=O)(=O)c1cccc(C(=O)OCC(=O)c2cc(C)n(-c3ccc4c(c3)OCO4)c2C)c1 | 0.00508 (inactive)
23 | S=c1nc(C2CC2)[nH]c2ccccc12 | -0.00904 (inactive)

Row | SMILES | response slope
24 | Cc1ccc(CNC(=O)c2cc3c(=O)n4ccccc4nc3n(CC3CCCO3)c2=N)cc1 (stereo not given) | 0.00307 (inactive)
25 | COc1cc(/C=C/C(=O)CC(=O)/C=C/c2ccc(O)c(OC)c2)ccc1O | 0.00973
26 | CCN(CC)C(=O)c1sc2nc(-c3cccs3)cc(-c3cccs3)c2c1N | -0.000749 (inactive)
27 | O=C(Nc1nc(-c2ccc(S(=O)(=O)N3CCCCCC3)cc2)cs1)c1cccs1 | 0.0142
28 | Cc1ccc(-c2nn(-c3ccccc3)cc2/C=C(\C#N)c2cccc(C#N)c2)o1 | 0.0107
29 | C[C@H]1OC[C@@H](C[N+](C)(C)C)O1 | 0.0167
30 | O=C(O)c1cc(O)c2c(c1)C(=O)c1cccc(O)c1C2=O | 0.00514 (inactive)
31 | COc1ccc(-c2noc(CSc3nc4ccccc4c(=O)n3-c3ccccc3)n2)cc1OC | 0.00773
32 | CN(C)c1ccc(/C=C/C(O)=C2/C(=O)N(C)C3(C)CC2c2ccccc2O3)cc1 (stereo not given) | 0.00464 (inactive)
33 | Clc1ccccc1OCCCCn1ccnc1 | 0.00392 (inactive)
34 | CCN(CC)c1ccc2cc(-c3nc4ccccc4[nH]3)c(=O)oc2c1 | 0.0191
35 | CC(=O)OC(C)C[N+](C)(C)C (stereo not given) | 0.00597 (inactive)
36 | CCOc1ccc(-n2c(O)c(C=Nc3ccc(N(CC)CC)cc3)c(=O)[nH]c2=O)cc1 | -0.00673 (inactive)
37 | O=c1c2ccccc2nc(-c2cccc(Cl)c2)n1O | 0.00746
38 | CN(C)C(CNC(=O)Nc1cccc(Cl)c1)c1cccnc1 (stereo not given) | 0.00144 (inactive)
39 | Cc1ccc(SCc2c(C#N)c3ccccc3n2C)cc1 | 0.00835
40 | C/C(CC1(O)C(=O)N(Cc2ccccc2)c2ccccc21)=N\O (stereo not given) | 0.00834
41 | Cc1csc(NC(=O)c2sc3nc(-c4cccs4)ccc3c2N)n1 | 0.00327 (inactive)
42 | CCc1cccc(NC(=O)Cn2cc3c(n2)CCCC3)c1 | 0.00695 (inactive)
43 | Cc1cccc2sc(NC(=O)Cn3cccc3)nc12 | 0.0102
44 | CCn1c(SC(C)C(=O)O)nc2sc3c(c2c1=O)CCC3 (stereo not given) | 0.0132
45 | O=C(Nc1nc(-c2ccc(S(=O)(=O)N3CCCC3)cc2)cs1)C1COc2ccccc2O1 (stereo not given) | 0.00604 (inactive)
